According to paper PMC5118709, “Identification of Polo-like kinase 1 interaction inhibitors using a novel cell-based assay” (Scientific Reports, 2016):
“And” between values parts separate entries of the source, which are not always exact repeats. Equal values may be shown once.

How the values were obtained:
Plk1-Map interaction [1] = biological target: T1, Plk1-Map interaction (Homo sapiens, UniProt P53350); assay: LUMIER co-immunoprecipitation assay Plk1-Map; details: for Average-Beads (mean luminescence) / Co-IP Values relative to top in plate column = 1 / Luminescence on beads, duplicate wells / effect on the Plk1-Map interaction in co-IP: 10-25 μM, 2 h; for Relative Luminescence Unit: mean divided by maximum mean of the compounds; for Luminescence on beads, duplicate wells: raw data
T1 sequence (P53350 whole entry): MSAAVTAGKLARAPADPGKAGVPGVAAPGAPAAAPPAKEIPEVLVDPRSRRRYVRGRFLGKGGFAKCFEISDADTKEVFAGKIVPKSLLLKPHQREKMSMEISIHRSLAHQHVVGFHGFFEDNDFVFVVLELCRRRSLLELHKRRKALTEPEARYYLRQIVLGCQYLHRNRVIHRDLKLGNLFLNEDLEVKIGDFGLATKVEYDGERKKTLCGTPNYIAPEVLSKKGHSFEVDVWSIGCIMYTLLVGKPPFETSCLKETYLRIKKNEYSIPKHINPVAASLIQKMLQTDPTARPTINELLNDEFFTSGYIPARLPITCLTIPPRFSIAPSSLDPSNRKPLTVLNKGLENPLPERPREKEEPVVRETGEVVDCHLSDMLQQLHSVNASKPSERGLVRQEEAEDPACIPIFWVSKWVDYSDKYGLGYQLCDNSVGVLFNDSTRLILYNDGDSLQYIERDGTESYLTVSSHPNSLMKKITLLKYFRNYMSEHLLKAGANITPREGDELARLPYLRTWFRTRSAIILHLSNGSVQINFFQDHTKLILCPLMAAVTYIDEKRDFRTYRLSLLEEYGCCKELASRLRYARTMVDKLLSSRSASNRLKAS

CRAF-BRAF = biological target: T2, CRAF-BRAF (Homo sapiens, UniProt P04049+P15056); assay: control BRET CRAF-BRAF (transient); format: cell-based; details: for Primary screen CRAF-BRAF (transient) % Inihibition / Primary screen CRAF-BRAF (transient) % Quench RLuc: 10-25 μM; for Confirmation CRAF-BRAF (transient) % Inihibition / Confirmation CRAF-BRAF (transient) % Quench RLuc: confirmation screen
T2 construct: expressed in transfected cells; host or cells: HEK293T, transient transfection with PEI
T2 sequence (P04049 whole entry): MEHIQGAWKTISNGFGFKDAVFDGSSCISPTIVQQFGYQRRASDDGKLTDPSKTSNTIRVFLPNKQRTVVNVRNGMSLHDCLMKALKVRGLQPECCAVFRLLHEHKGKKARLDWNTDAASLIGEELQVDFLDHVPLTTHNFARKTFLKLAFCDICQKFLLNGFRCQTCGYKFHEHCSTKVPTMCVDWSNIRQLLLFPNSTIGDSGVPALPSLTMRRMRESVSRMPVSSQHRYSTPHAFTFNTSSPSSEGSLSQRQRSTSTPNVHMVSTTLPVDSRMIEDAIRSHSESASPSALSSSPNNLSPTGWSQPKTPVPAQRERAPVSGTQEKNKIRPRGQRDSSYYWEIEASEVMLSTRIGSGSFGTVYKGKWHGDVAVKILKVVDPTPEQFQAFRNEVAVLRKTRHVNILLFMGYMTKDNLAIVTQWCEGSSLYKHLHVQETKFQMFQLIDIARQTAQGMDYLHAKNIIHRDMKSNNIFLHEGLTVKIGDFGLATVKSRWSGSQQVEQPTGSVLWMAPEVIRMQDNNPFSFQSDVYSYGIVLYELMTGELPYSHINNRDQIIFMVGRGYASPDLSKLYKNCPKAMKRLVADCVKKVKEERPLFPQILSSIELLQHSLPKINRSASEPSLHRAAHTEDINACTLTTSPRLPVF
T2 sequence (P15056 whole entry): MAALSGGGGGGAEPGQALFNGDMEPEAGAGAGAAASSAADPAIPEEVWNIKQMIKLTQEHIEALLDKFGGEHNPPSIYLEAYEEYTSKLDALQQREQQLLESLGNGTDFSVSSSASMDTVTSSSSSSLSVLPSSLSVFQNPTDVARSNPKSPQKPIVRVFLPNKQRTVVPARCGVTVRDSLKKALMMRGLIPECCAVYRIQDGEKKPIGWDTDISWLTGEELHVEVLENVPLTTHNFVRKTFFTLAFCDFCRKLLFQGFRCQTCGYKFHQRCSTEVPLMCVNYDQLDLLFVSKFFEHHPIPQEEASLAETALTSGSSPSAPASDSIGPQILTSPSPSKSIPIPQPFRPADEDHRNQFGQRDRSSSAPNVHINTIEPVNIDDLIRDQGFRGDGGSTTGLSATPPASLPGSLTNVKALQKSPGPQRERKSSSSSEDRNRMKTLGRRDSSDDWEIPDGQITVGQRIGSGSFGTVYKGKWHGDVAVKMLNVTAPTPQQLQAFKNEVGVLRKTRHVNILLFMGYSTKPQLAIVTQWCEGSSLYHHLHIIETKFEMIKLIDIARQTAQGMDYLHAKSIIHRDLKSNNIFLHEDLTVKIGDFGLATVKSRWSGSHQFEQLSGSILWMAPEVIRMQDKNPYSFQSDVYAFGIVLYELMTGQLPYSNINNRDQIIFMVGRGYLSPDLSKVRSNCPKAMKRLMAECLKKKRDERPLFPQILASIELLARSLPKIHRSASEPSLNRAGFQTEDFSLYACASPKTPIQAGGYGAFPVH
Procedure: (§1) We used our cell-based assay to screen a library of 112 983 compounds available in-house at IRIC’s High-Throughput Screening (HTS) platform (see Materials & Methods). Compounds were tested on cells in 384-well plates at concentrations between 10 μM and 25 μM, depending on their concentration in the original stocks solutions. BRET readings were taken 2 hours after treatment. Results obtained show a tight, close to normal distribution centered around zero inhibition relative to DMSO-treated controls (Fig. 1D). Compounds inducing at least 30% BRET inhibition were selected. From these, auto-fluorescent compounds and those that induced more than 90% reduction in RLucII luminescence were removed, leaving 800 primary hits, that we then re-tested using the same assay. In parallel, we tested these compounds in a control BRET assay for an unrelated pair of interacting proteins (BRAF-CRAF[46]) to exclude false-positive compounds that could reduce the BRET signal by interfering with light or by modifying the activity of GFP or Luc.
(§2) For the confirmation screen, the same procedure as for the primary screen was followed, except that HEK293T cells were also seeded at 6.25 millions of cells per simple CellStack on day 1 for transient transfections. These cells were transfected on day 3 with Luc-Map (5 μg) and Plk1-GFP (25 μg) pIRESHyg3 plasmids using polyethylenimine (PEI). To identify false-positives compounds, Luc-CRAF (4 μg) and GFP-BRAF (20 μg) plasmids were also transfected with PEI following the published procedure.

HeLa cells [2] = assay: mitotic index assay (phospho-Histone H3) in HeLa cells; format: cell-based; details: for Mitotic index (%): 10-25 μM, 7 h; for effect on mitotic index, purchased compounds: 10 μM
Plk1-Map interaction [3] = biological target: T1, Plk1-Map interaction; assay: BRET Plk1-Map, stable HEK293T Plk1-Luc/GFP-Map cell line; format: cell-based; design: cDNAs for the human full length Plk1; expressed in transfected cells; details: for Primary screen Plk1-Map (stable) % Inihibition / Primary screen Plk1-Map (stable) % Quench RLuc: 10-25 μM, 2 h; for Confirmation Plk1-Map (stable) % Inihibition / Confirmation Plk1-Map (stable) % Quench RLuc: confirmation screen
Description: To develop a cell-based assay for the identification of Plk1 interaction inhibitors, we used Bioluminescence Resonance Energy Transfer (BRET)[42][43]. The assay monitors the interaction in HEK293T cells between Plk1 and Map205, a protein that we previously identified as an interactor of Drosophila Polo (Plk1 ortholog) on its PBD[44]. Although no ortholog of Drosophila Map205 has been found in vertebrates, this protein robustly interacts with vertebrate Plk1. […] Importantly, crystallography with zebrafish Plk1 has recently shown that Map205 nevertheless docks in the canonical phosphopeptide binding site of the PBD, with the natural phospho-mimetic Glu314 residue (Fig. 1A)[45]. In our assay, human Plk1 and a fragment of Drosophila Map205 (Map205_254-416 = Map) are respectively fused to Renilla luciferase II (Luc) and GFP10 (GFP), giving rise to energy transfer when the proteins are in close proximity (Fig. 1B). […] All combinations of Plk1 and Map tagged with Luc and GFP were tested (Supplementary Fig. S1). The Plk1-Luc/GFP-Map combination was selected because it yielded the highest BRET dynamic window. We then generated clonal stable cell lines co-expressing these two fusion proteins. These cell lines behaved very similarly to each other in BRET, and we selected one line that gave a high and reproducible BRET signal, with a Z′ score of 0.78, indicative of a robust assay for the purpose of a chemical screen (Supplementary Fig. S1).
as §1
For BRET on transiently transfected cells, 48 hours after the transfection, medium was removed, cells were washed twice with PBS, and then Tyrode solution (140 mM NaCl, 2.7 mM KCl, 12 mM NaHCO3, 5.6 mM D-glucose, 0.49 mM MgCl2, 0.37 mM NaH2PO4, 25 mM HEPES, pH 7.4, where 1 mM CaCl2 was freshly added) was added to the cells. Total fluorescence was first measured using a FlexStation II microplate reader (Molecular Devices), where the GFP10 was excited at 400 nm and read at 510 nm. Then, cells were treated for 5 minutes with 2.5 μM coelenterazine 400a (Gold Technology) before reading BRET2 using the Mithras LB940 microplate reader (Berthold Technologies). BRET2 signal corresponds to the light emitted by the GFP10 acceptor constructs (515 nm ± 20 nm) divided by the light emitted by the RlucII donor constructs (400 nm ± 70 nm). Net BRET2 was calculated by subtracting the background BRET ratio of the RLucII plasmid alone from the BRET ratio obtained by the two BRET partners. The Net BRET2 was plotted according to the GFP10/RLucII ratio, which was obtained by dividing the total fluorescence by the RLucII emission.
For the high throughput chemical screen, cells were amplified and frozen as multiple 1 ml aliquots containing 25 millions of stable HEK293T Plk1-Luc/GFP-Map cells to ensure that cells at the same passage number are used during the screen. […] Five days later, cells were counted and re-suspended in Tyrode solution. […]

Plk1-Map interaction [4] = biological target: T1, Plk1-Map interaction; assay: BRET Plk1-Map, transient Luc-Map/Plk1-GFP in HEK293T; format: cell-based; design: cDNAs for the human full length Plk1; expressed in transfected cells; details: confirmation screen
Procedure: as §2

GST-PBD367-603 of Plk1 = GST-PBD367-603 of Plk1 (Homo sapiens, UniProt P53350); assay: fluorescence polarization assay PBD-phosphopeptide; details: for activity in the FP assay: 50 μM
Sequence of GST-PBD367-603 of Plk1 (P53350 367-603): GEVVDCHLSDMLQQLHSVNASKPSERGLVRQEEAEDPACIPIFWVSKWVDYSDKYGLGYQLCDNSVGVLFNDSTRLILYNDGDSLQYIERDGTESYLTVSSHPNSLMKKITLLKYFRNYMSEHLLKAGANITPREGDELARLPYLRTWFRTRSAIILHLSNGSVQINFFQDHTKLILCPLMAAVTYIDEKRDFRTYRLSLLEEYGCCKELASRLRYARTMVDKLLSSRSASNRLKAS

HEK293T cells = assay: mitotic index assay (phospho-Histone H3) in HEK293T cells
Procedure: For the mitotic index assay, 4000 HeLa cells or 5000 HEK293T cells per well were seeded in a 96-well plate. The day after, cells were incubated for 7 hours with different compounds, and then fixed by adding formaldehyde (4% final concentration) directly to each well. Plates were incubated 20 minutes at 37 °C, and then wells were rinsed three times with TBS-Tween 0.1%. A 1 hour block with PHEM buffer (60 mM Pipes, 25 mM HEPES, 10 mM EGTA, 4 mM MgSO4, pH 6.9) containing 2% BSA and 0.1% triton was performed, before addition of the primary antibody to the wells. The anti-phospho-Histone H3 (Ser10) antibody (EMD Millipore) was diluted 1:300 in PHEM buffer containing 2% BSA and added to the wells for 2 hours at room temperature in the dark. […] Plates were incubated for 1h 30 at room temperature in the dark, and then wells were washed 3 times with TBS-Tween 0.1%. A solution of Mowiol containing DAPI was finally added to the wells. Plates were kept at 4 °C in the dark until imaging using the 20x objective on an Operetta system (Perkin Elmer inc.). The mitotic index, corresponding to the percentage of pHH3 positive cells relative to the total number of DAPI-stained cells detected was calculated by the Operetta using the Harmony 3.5 software. Experiments were done in triplicates.

HeLa cells [5] = assay: mitotic defect phenotypes by immunofluorescence; format: cell-based; details: 10 μM, 7 h
Procedure: HeLa cells were treated with these compounds along with the known PBD inhibitors PPG, TQ, Poloxin and the KD inhibitor BI2536 as controls, and then stained against α-Tubulin, pericentrin (a centrosome marker) and DNA (Fig. 2D). In all cases, there was a marked increase in the frequency of disorganized spindles compared with DMSO-treated control cells. This is expected as Plk1 plays multiple roles in spindle assembly and maintenance. […] Cpd 69, an analog of compound 122, induced a similar phenotype at lower concentrations (data not shown). This phenotype was not seen after treatment with BI2536.
For the mitotic defect phenotypes, 25 200 HeLa cells were plated on poly-L-lysine coated round cover slips in 24-well plates. The day after, cells were treated for 7 hours, and then washed with PHEM buffer at 37 °C before fixation in PHEM buffer containing 4% formaldehyde for 20 minutes at 37 °C. Cells were washed three times with TBS-tween 0.1% and plate was kept overnight at 4 °C. Next steps were followed as previously described except that coverslips were incubated in a dark wet chamber with antibodies. Anti-pericentrin (diluted 1:1000; Abcam), anti-α-tubulin DM1A (diluted 1:500; Sigma-Aldrich), Alexa Fluor 488 anti-rabbit and Texas-Red anti-mouse (diluted 1:200; Invitrogen) were used. Coverslips were mounted on slide using Vectashield media containing DAPI (Vector Laboratories).
Images shown in Fig. 2D were acquired on an AxioImager microscope (Carl Zeiss) with a 100x oil objective (NA 1.4 DICIII) and an AxioCam HRM camera (Carl Zeiss) using AxioVision software (Carl Zeiss).

[6] = reaction with amino-protected amino acids (LC-MS); details: room temperature
Procedure: Vinyl sulfones are reactive species that can alkylate substrates as a result of a nucleophilic attack on the distal carbon of the vinyl group. To evaluate the potential of Cpd 161 (vinyl sulfone) to react with proteins, we tested its reaction with nucleophilic amino acid side chains groups. […] To test whether Cpd 161 could react covalently with the PBD, we incubated them together and examined the molecular mass of the protein by SDS-PAGE (Fig. 7). […] Consistent with this idea, the extent of the shift depended on the concentration of Cpd 161 used (Fig. 7B) and also on the incubation time (Fig. 7C).
To a stirred solution of electrophile (0.02 mmol) and amino acid (1- 1.5eq) in DMF (0.3 ml) were added a few drops of a diluted aqueous solution of sodium bicarbonate. The reaction was monitored using an Agilent 6120 Quadrupole LC/MS system (Agilent Technologies). In all cases, the molecular ion of the product was observed.

Row | Average-Beads (mean luminescence) (Plk1-Map interaction [1]) | Co-IP Values relative to top in plate column = 1 (Plk1-Map interaction [1]) | Relative Luminescence Unit (Plk1-Map interaction [1]) | Luminescence on beads, duplicate wells (Plk1-Map interaction [1]) | Primary screen CRAF-BRAF (transient) % Inihibition (CRAF-BRAF) [%] | Primary screen CRAF-BRAF (transient) % Quench RLuc (CRAF-BRAF) [%] | Confirmation CRAF-BRAF (transient) % Inihibition (CRAF-BRAF) [%] | Confirmation CRAF-BRAF (transient) % Quench RLuc (CRAF-BRAF) [%] | Primary screen Plk1-Map (stable) % Inihibition (Plk1-Map interaction [3]) [%] | Primary screen Plk1-Map (stable) % Quench RLuc (Plk1-Map interaction [3]) [%] | Confirmation Plk1-Map (stable) % Inihibition (Plk1-Map interaction [3]) [%] | Confirmation Plk1-Map (stable) % Quench RLuc (Plk1-Map interaction [3]) [%] | Confirmation Plk1-Map (transient) % Inihibition (Plk1-Map interaction [4]) [%] | Confirmation Plk1-Map (transient) % Quench RLuc (Plk1-Map interaction [4]) [%] | effect on the Plk1-Map interaction in co-IP (Plk1-Map interaction [1]) | activity in the FP assay (GST-PBD367-603 of Plk1) | SMILES | Mitotic index (%) (HeLa cells [2]) | effect on mitotic index, purchased compounds (HeLa cells [2]) | 2 > pericentrin foci (percentage of cells) (HeLa cells [5]) [%] | Disorganized spindles (percentage of cells) (HeLa cells [5]) [%] | further results
1 | 18,942 | 0.017 | 0.017 | 18,060 and 19,824 | 31.50 | 81.13 | -4.59 | 86.14 | 67.91 | 84.93 | 41.55 | 78.03 | 53.01 | 72.97 | – | – | N#Cc1cccnc1S(=O)(=O)CCOC(=O)c1cccc(Cl)c1 [Cpd 15] | 0.81 | – | – | – | IC50 (GST-PBD367-603 of Plk1; FP - IC50 (μM), Table S3): 5.7 ± 2.8 µM; IC50 (GST-PBD367-603 of Plk1; IC50 in FP, GST-PBD367-603 38 nM, 1 h pre-incubation, FITC-phosphopeptide 10 nM, Fig. 4C): 6 µM
2 | 601,974 | 0.219 | 0.219 | 584,340 and 619,608 | 16.40 | 63.54 | 19.45 | 66.12 | 53.18 | 82.37 | 30.35 | 91.04 | -29.25 | 72.57 | – | – | COc1ccc(-c2oc3ccccc3c(=O)c2OS(=O)(=O)c2ccccc2)cc1 [Cpd 46] | 29.44 | – | – | – | –
3 | 281,985 | 0.866 | 0.866 | 232,744 and 331,226 | 18.32 | 72.42 | 7.18 | 67.88 | 77.38 | 86.93 | 49.85 | 91.91 | -0.61 | 62.73 | no effect | little or no activity | COc1ccc(-c2oc3ccccc3c(=O)c2OS(=O)(=O)c2cc(OC)ccc2OC)cc1 [Cpd 69] | 30.13 | significant increase | 2 ± 2 | 100 ± 0 | effect on mitotic index, purchased compounds (HEK293T cells; 1 μM): small increase; effect on mitotic index, purchased compounds (HEK293T cells; 10 μM): significant increase
4 | 1,018,574 | 0.776 | 0.776 | – | -8.30 | 44.16 | 3.03 | 35.15 | 44.05 | 86.60 | 30.57 | 79.14 | -1.93 | 25.69 | no effect | little or no activity | COc1ccc(-c2oc3ccccc3c(=O)c2OS(=O)(=O)c2cc(Cl)ccc2Cl)cc1 [Cpd 122] | – | significant increase | 65 ± 2 | 85 ± 5 | effect on mitotic index, purchased compounds (HEK293T cells; 10 μM): significant increase
5 | – | – | – | – | – | – | – | – | – | – | – | – | – | – | – | – | CC1=CC(=O)C(C(C)C)=C/C1=N\OC(=O)c1ccccc1C [Poloxin] | – | – | 27 ± 21 | 61 ± 14 | mitotic index (HeLa cells [2]; 25 μM): around 20%; time to completion of reaction with amino-protected histidine [6]: approximately 10 minutes; time to completion of reaction with amino-protected lysine [6]: approximately 10 minutes
